According to patent US5371102A, “Compositions and methods of inhibiting thyroid activity” (priority 1993, dated 1994):
Entries after “also recorded” stand apart in the source; their conditions may differ.

Experiments:
TPX = biological target: T1, TPX (Sus scrofa, UniProt P09933); experiment: TPX-catalyzed iodide oxidation (triiodide formation), spectrophotometric; format: biochemical, hog
T1 sequence (P09933 15-926): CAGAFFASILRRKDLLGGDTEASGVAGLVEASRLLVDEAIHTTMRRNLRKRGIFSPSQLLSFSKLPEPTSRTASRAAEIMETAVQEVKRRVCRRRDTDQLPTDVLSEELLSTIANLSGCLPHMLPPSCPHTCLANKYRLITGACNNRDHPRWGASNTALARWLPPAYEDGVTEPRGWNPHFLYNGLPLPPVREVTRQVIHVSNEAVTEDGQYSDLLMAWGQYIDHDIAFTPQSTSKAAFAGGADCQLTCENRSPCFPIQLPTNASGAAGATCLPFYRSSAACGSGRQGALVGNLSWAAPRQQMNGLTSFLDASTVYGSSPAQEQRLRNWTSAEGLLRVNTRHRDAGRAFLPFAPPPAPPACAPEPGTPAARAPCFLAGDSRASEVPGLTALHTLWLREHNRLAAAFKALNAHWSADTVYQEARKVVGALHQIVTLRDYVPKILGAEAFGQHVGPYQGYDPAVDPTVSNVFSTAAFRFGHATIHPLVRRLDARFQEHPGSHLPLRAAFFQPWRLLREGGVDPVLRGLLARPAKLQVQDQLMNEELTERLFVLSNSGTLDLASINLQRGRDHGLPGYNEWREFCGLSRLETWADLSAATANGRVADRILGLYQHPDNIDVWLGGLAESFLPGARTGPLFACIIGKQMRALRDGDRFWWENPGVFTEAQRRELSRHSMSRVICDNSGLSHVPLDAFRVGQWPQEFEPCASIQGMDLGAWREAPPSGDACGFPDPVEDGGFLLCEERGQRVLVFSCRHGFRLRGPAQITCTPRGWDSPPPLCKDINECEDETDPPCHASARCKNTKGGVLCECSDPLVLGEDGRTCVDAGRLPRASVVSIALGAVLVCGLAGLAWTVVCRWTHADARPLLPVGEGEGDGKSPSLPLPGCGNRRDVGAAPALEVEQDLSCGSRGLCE
Excerpt: (§1) Materials used in the examples below were obtained from the following sources. Bovine LPX, bovine liver catalase, glucose oxidase, 30% hydrogen peroxide, glucose, guaiacol, ABTS and deuterium oxide were purchased from Sigma Chemical Company. Selenium dioxide, MBI ^13 CH3 I and PBA were purchased from Aldrich Chemical Company and PBA was purified as previously described by Fieset et al., Reagents for Organic Synthesis, Vol. I, pp.135-139, John Wiley and Sons, N.Y. (1967). LPX purity was checked by PAGE, as described by Doerge, D.R., et al. in, Biochem. Pharmacol., Vol.36, pp.972-974 (1986). TPX was purified from hog thyroids obtained from a local slaughterhouse by published procedures. Doerge & Takazowa, Chemical Research in Toxicology, Vol. 3, pp. 98-101 (1990). TPX purity was determined by LC and its concentration determined spectophotometrically. Hydroperoxide concentrations were determined by iodometric titration, as described by Kolthoff, et al., in "Quantitative Chemical Analysis", Macmillan, London, pp.842-860 (1969). MMBI, and BI were synthesized by published procedures as described by Doerge, D.R., Biochem, Vol. 27, pp. 3697-3700 (1988) and were recrystallized from aqueous ethanol. MeBI was purified by distillation and DMeBI^+ was synthesized and purified by recrystallization from ethyl acetate/methanol. 1-^13 C-MMBI was synthesized from ^13 CH3 I according to the procedure disclosed by Doerge, D.R., in, J. Lab. Comp. and Radiopharm., Vol.25, pp.985-990 (1988). PPHP and PPA were prepared, purified and analyzed as previously described by Doerge, Biochem, Vol.27, p.11 (1988). The methyl ester of 1-methyl-benzimidazole-2-sulfinic acid was prepared by addition of hydrogen peroxide (5 equivalents of a 10 M solution) to MMBI (0.1 M) in methanol. The products, MeBI and the ester, were obtained following preparative TLC on silica (Uniplate, Analtech Co., Newark, DL) using 5% methanol/chloroform as eluant. […]
1,3-diacetyl MBI (AczMBI) was synthesized according to the method published by Doerge et al., Syn. […] Varying quantities of Ac2 MBI were incubated with TPX, H2 O2, and I^-. […]

LPX [1] = biological target: T2, LPX (Bos taurus, UniProt P80025); experiment: LPX suicide inactivation kinetics; format: biochemical, bovine; details: presence of hydrogen peroxide
T2 construct: purchased Sigma Chemical Company
Excerpt: Materials used in the examples below were obtained from the following sources. Bovine LPX, bovine liver catalase, glucose oxidase, 30% hydrogen peroxide, glucose, guaiacol, ABTS and deuterium oxide were purchased from Sigma Chemical Company. Selenium dioxide, MBI ^13 CH3 I and PBA were purchased from Aldrich Chemical Company and PBA was purified as previously described by Fieset et al., Reagents for Organic Synthesis, Vol. I, pp.135-139, John Wiley and Sons, N.Y. (1967). LPX purity was checked by PAGE, as described by Doerge, D.R., et al. in, Biochem. Pharmacol., Vol.36, pp.972-974 (1986). TPX was purified from hog thyroids obtained from a local slaughterhouse by published procedures. Doerge & Takazowa, Chemical Research in Toxicology, Vol. 3, pp. 98-101 (1990). TPX purity was determined by LC and its concentration determined spectophotometrically. Hydroperoxide concentrations were determined by iodometric titration, as described by Kolthoff, et al., in "Quantitative Chemical Analysis", Macmillan, London, pp.842-860 (1969). MMBI, and BI were synthesized by published procedures as described by Doerge, D.R., Biochem, Vol. 27, pp. 3697-3700 (1988) and were recrystallized from aqueous ethanol. MeBI was purified by distillation and DMeBI^+ was synthesized and purified by recrystallization from ethyl acetate/methanol. 1-^13 C-MMBI was synthesized from ^13 CH3 I according to the procedure disclosed by Doerge, D.R., in, J. Lab. Comp. and Radiopharm., Vol.25, pp.985-990 (1988). PPHP and PPA were prepared, purified and analyzed as previously described by Doerge, Biochem, Vol.27, p.11 (1988). The methyl ester of 1-methyl-benzimidazole-2-sulfinic acid was prepared by addition of hydrogen peroxide (5 equivalents of a 10 M solution) to MMBI (0.1 M) in methanol. The products, MeBI and the ester, were obtained following preparative TLC on silica (Uniplate, Analtech Co., Newark, DL) using 5% methanol/chloroform as eluant.
Inhibition of LPX activity by thiones was determined from the kinetics of iodide ion, guaiacol or ABTS oxidation assays conducted at 25° C. Kinetic parameters of suicide inactivation were determined as previously described. Doerge, Biochem. Vol.27, pp.3697-3700 (1988).

LPX [2] = biological target: T2, LPX; experiment: LPX-catalyzed iodide ion oxidation (triiodide formation); format: biochemical, bovine
Excerpt: as §1, with “methanol.” for “methanol. The products, MeBI and the ester, were obtained following preparative TLC on silica (Uniplate, Analtech Co., Newark, DL) using 5% methanol/chloroform as eluant.”
Inhibition of LPX activity by thiones was determined from the kinetics of iodide ion, guaiacol or ABTS oxidation assays conducted at 25° C. Kinetic parameters of suicide inactivation were determined as previously described. […]

LPX [3] = biological target: T2, LPX; experiment: LPX-catalyzed tyrosine iodination; format: biochemical, bovine
Excerpt: Materials used in the examples below were obtained from the following sources. Bovine LPX, bovine liver catalase, glucose oxidase, 30% hydrogen peroxide, glucose, guaiacol, ABTS and deuterium oxide were purchased from Sigma Chemical Company. Selenium dioxide, MBI ^13 CH3 I and PBA were purchased from Aldrich Chemical Company and PBA was purified as previously described by Fieset et al., Reagents for Organic Synthesis, Vol. I, pp.135-139, John Wiley and Sons, N.Y. (1967). LPX purity was checked by PAGE, as described by Doerge, D.R., et al. in, Biochem. Pharmacol., Vol.36, pp.972-974 (1986). TPX was purified from hog thyroids obtained from a local slaughterhouse by published procedures. Doerge & Takazowa, Chemical Research in Toxicology, Vol. 3, pp. 98-101 (1990). TPX purity was determined by LC and its concentration determined spectophotometrically. Hydroperoxide concentrations were determined by iodometric titration, as described by Kolthoff, et al., in "Quantitative Chemical Analysis", Macmillan, London, pp.842-860 (1969). […] PPHP and PPA were prepared, purified and analyzed as previously described by Doerge, Biochem, Vol.27, p.11 (1988). […]
In this experiment the effect of DMMBI on tyrosine iodination catalyzed by LPX was determined. […]

Cn1c(=S)n(C)c2ccccc21 [DMMBI, 1,3-dimethylbenzimidazole-2-thione]
effect on triiodide formation (TPX; TPX, H2O2 and I-): causes a lag in triiodide formation, followed by an increase in the rate of triiodide formation approximating the control rate | inhibition of iodide ion oxidation (TPX; TPX/hydrogen peroxide): inhibits only iodide ion oxidation | LPX inactivation / loss of LPX activity (LPX [1]): does not inactivate LPX or TPX | inhibition of iodide ion oxidation (triiodide formation) (LPX [2]; LPX, H2O2, iodide ion): marked inhibition of iodide ion oxidation; also recorded: inhibits only iodide ion oxidation | lag period (LPX [2]; dependence on DMMBI concentration): proportional to the concentration of DMMBI | tyrosine iodination (LPX [3]): inhibits tyrosine iodination
